Laboratory results from patent US6645715B1, “Artificial cornea” (University of Ottawa, priority 1998, dated 2003).

Legend:
[1] = tested on: FFA-activated K^+ current of cultured human corneal epithelial cells; assay: Perforated-patch whole-cell patch clamp, pharmacological activators (FFA-activated current); type: cell-based; conditions: for effect on the FFA-activated current: 3 mM TEA or 5 mM Ba^+2
Protocol: (§1) Single cells for patch clamp analysis of transfected and non-transfected cells were obtained by washing cultured cells free of culture medium using PBS containing 0.53 mM EDTA and then incubating with Ca^+2 and Mg^+2 free Hanks' balanced salt solution (GIBCO) containing 0.05% trypsin and 0.53 mM EDTA for 2 minutes at 37° C. in a 5% CO2 incubator. Loose cells were aspirated into a Pasteur pipette and transferred into a conical tube containing Media 199 (Sigma, St. Louis, Mo.) supplemented with 10% FCS (Sigma, St. Louis, Mo.). Isolated cells were transferred to an inverted microscope mounted with an external stage, placed into an acrylic chamber filled with Ringer's solution, and allowed to settle and attach to the glass bottom.
Macroscopic currents in single cells were examined using the perforated-patch configuration of the whole-cell patch-clamp technique with amphotericin B as the perforating agent. The composition of the patch pipette in millimolar was 145 potassium methanesulfonate, 2.5 NaCl, 2.5 CaCl2, 5 HEPES, and […] amphotericin B. Patch pipettes were fabricated from KG-12 capillary glass, coated with Sylgard (Dow Corning, Midland, Mich.) and fire polished. Currents were recorded at room temperature using a patch-clamp amplifier operated by Gateway 486DX2 computer (Gateway 2000, Sioux City, S. Dak.) loaded with pCLAMP software (Axon 200A, Axon Instruments, Foster City, Calif.) for the generation of voltage-clamp protocols. Current recordings were capacity compensated using the amplifier circuitry, sampled between 2 to 5 kHz, filtered between 1 to 2 kHz, and subsequently analyzed with the software program. Voltage-clamp protocols were repeated at least three times to obtain the average current response to a voltage pulse. Current voltage (I-V) relationships were corrected for the junction potential generated by the pipette solution and the amphotericin B-induced Donnan potential by subtracting the difference between the reversal potential of tail currents measured in symmetrical K^+ solutions and the 0 mV potential.
The tests of examples 1.1, 1.2, and 1.3 were repeated following the addition of 100 μM flufenamic acid (FFA) to the NaCl Ringer's bath.
To determine the ion selectivity of this TEA-sensitive FFA-activated current, cultured human corneal epithelial cells were bathed in NaCl Ringer's solution with 100 μM FFA and a family of instantaneous tail currents was generated. The same cells were then bathed in NaCl Ringer's solution with 100 μM FFA and 3 mM TEA and a second family of instantaneous tail currents was generated. An instantaneous tail I-V plot was obtained by digitally subtracting the instantaneous tail responses determined for the same cell bathed with FFA with and without TEA.

[2] = tested on: nonselective cation current of human corneal epithelial cells; assay: Perforated-patch whole-cell patch clamp, nonselective cation current; type: cell-based; conditions: 1 mM external
Protocol: as §1
Macroscopic currents in single cells were examined using the perforated-patch configuration of the whole-cell patch-clamp technique with amphotericin B as the perforating agent. […] Currents were recorded at room temperature using a patch-clamp amplifier operated by Gateway 486DX2 computer (Gateway 2000, Sioux City, S. Dak.) loaded with pCLAMP software (Axon 200A, Axon Instruments, Foster City, Calif.) for the generation of voltage-clamp protocols. Current recordings were capacity compensated using the amplifier circuitry, sampled between 2 to 5 kHz, filtered between 1 to 2 kHz, and subsequently analyzed with the software program. […]

[3] = tested on: endothelium of reconstructed corneas (Na/K ATPase); assay: Endothelial function test: corneal thickness by Optical Coherence Tomography after ouabain; type: cell-based, human; conditions: 10^-4M ouabain in DMEM, 2 hours, silicone oil on epithelium; one set of corneas, preliminary
Source text: Ouabain, a cardiac glycoside, inhibits Na/K ATPase, disrupting corneal endothelial functioning. When this is applied to the cornea, the endothelium looses its pumping function, and without this, the cornea will swell (Watsky et al. 1990).
1. Corneas were reconstructed in 30 mm inserts. In this experiment, we have contructed them with the epithelium down.
2. A whole cornea was immersed in DMEM only.
3. At the start of the experiment, medium outside insert was removed and replaced with silicone oil. This essentially seals off the epithelium. Corneal thickness was measured using Optical Coherence Tomography (OCT) (Humphrey Instruments, Carl Zeiss, Inc.). Four readings were taken from each cornea and the average was taken.
4. DMEM within the control insert was replaced with 1 ml of fresh DMEM only. Experimental cornea was treated with 10^-4M ouabain in DMEM.
5. After 2 hours, the corneal thicknesses were measured by OCT.
6. Changes in corneal thickness (if any) was calculated.

[4] = tested on: immortalized HUVECs (Cell Lines); assay: Response to growth factors, immortalized HUVECs in matrix; type: cell-based, human
Protocol: For transfection, primary HUVECs were seeded onto uncoated 60 mm tissue culture plates and cultured until 60-70% confluent. They were then immortalized by infection with the HPV16 E6 and E7 genes and selected by G418 resistance as described above.
The virally transfected HUVECs were tested for functionality by their ability to undergo angiogenesis in a three-dimensional fibrin-containing matrix (FIG. 16); and their ability to sequester acetylated low density lipoprotein labelled with 1,1′-dioctadecyl-3,3,3′,3′-tetramethylindocarbocyanine perchlorate (DiI-Ac-LDL; Biomed. Technol. Inc., Stoughton, Mass.), (FIGS. 17 and 18). Immortalized HUVECs can also be maintained in the serum-free medium. As with corneal cell lines, other genes can also be introduced into HUVEC lines. For example, GFP has been introduced by transfection.
During the assays in matrices, cells were grown in serum (10%) supplemented-medium 199 containing heparin, L-glutamine or modified glutamine such as L-Alanyl-L-Glutamine (GlutaMAX™, GIBCO) and antibiotics at the same concentration as described above, without ECGS, but with 50 ng/ml of FGF-2. Serum-free medium has also been used.

[5] = tested on: primary HUVECs (Normal Cells); assay: Response to growth factors, primary HUVECs in matrix; type: cell-based, human
Protocol: Human umbilical vein endothelial cells (HUVECs) were harvested from umbilical cord veins as previously described (Sirois E, et al., Int. J. Artificial Organs 16:609-619, 1993). They were grown on a gelatin-coated dish until confluence in Medium 199 supplemented with 20% FBS, 90 mg/l of heparin, 2 mM of L-glutamine and 100 μg/ml endothelial cell growth supplement (ECGS). Penicillin (100 I.U./ml), streptomycin sulfate (100 μg/ml) and amphotericin B (0.25 μg/ml) were present in medium. After the first passage, FBS concentration was reduced to 10% and ECGS to 20 μg/ml. Cells were subcultured at a ratio of 1:3 or 1:4 and HUVECs from the 2nd to 4th passages were used in our bioassays. Endothelial cell phenotype was verified by the dii-acetylated low-density lipoprotein (diI-Ac-LDL) uptake and positivity to factor VIII-related antigen antibodies by immunocytochemistry. Cultures were incubated in 5% CO2 atmosphere at 37° C. in saturated humidity. The medium was changed every other day.
The virally transfected HUVECs were tested for functionality by their ability to undergo angiogenesis in a three-dimensional fibrin-containing matrix (FIG. 16); and their ability to sequester acetylated low density lipoprotein labelled with 1,1′-dioctadecyl-3,3,3′,3′-tetramethylindocarbocyanine perchlorate (DiI-Ac-LDL; Biomed. Technol. Inc., Stoughton, Mass.), (FIGS. 17 and 18). […]

reconstructed corneas [6] = assay: Responses of reconstructed corneas to aqueous test chemicals (wound, corneal transparency); type: cell-based, human; conditions: 100 μl centrally for 10 min, washed off with saline, re-cultured 3 days; 10% SDS, 0.01% benzalkonium chloride solution
Protocol: Each cornea was exposed centrally to 100 μl of the test chemical for 10 min, after which the chemical was washed off with saline and the corneas were re-cultured for a further 3 days. The saline-treated cornea served as the control.

reconstructed corneas [7] = assay: Live-dead staining of reconstructed corneas after chemical exposure; type: cell-based, human; conditions: SDS; 0.01% benzalkonium chloride solution
Source text: Live cells are green, while dying or dead cells are orange-red. […] C.

Compound: O=C(O)c1ccccc1Nc1cccc(C(F)(F)F)c1 [FFA, flufenamic acid]
- voltages at which a second FFA-stimulated K^+ current is active [1]: greater than +10 mV
- activation voltage of the FFA-stimulated current (I-V plot) ([1]; 100 μM FFA): about −60 mV
- increase in the maximum outward current ([1]; 100 μM FFA in NaCl Ringer's bath, versus cells not exposed): more than 10 fold
- Erev for the TEA-sensitive FFA-activated current ([1]; 100 μM FFA with and without 3 mM TEA, digital subtraction of instantaneous tail currents): about −80 mV
- reversibility of the FFA response ([1]; 100 μM FFA, same cell): reversible and repeatable

Compound: CC[N+](CC)(CC)CC [TEA, tetraethylammonium]
- effect on the FFA-activated current ([1]; 100 μM FFA): blocked

Compound: [Ba+2] [barium]
- effect on the FFA-activated current ([1]; 100 μM FFA): blocked
- sensitivity of the nonselective cation current [2]: not sensitive

Compound: [Gd] [gadolinium]
- sensitivity of the nonselective cation current [2]: not sensitive

Compound: C[C@@H]1O[C@@H](O[C@H]2C[C@@H](O)[C@]3(CO)[C@H]4[C@H](O)C[C@]5(C)[C@@H](C6=CC(=O)OC6)CC[C@]5(O)[C@@H]4CC[C@]3(O)C2)[C@H](O)[C@H](O)[C@H]1O [ouabain, Ouabain]
- change in corneal thickness (swelling) [3]: 24%

Compound: FGF-2: basic fibroblast growth factor
- Response to Growth Factors, Cell Lines ([4]; FGF-2 (50 ng/ml)): Angiogenesis
- Response to Growth Factors, Cell Lines ([4]; FGF-2, concentration not given): Cell death
- Response to Growth Factors, Normal Cells ([5]; FGF-2 (50 ng/ml)): Angiogenesis
- Response to Growth Factors, Normal Cells ([5]; FGF-2, concentration not given): Cell death

Compound: benzalkonium chloride
- wound / change of corneal transparency (reconstructed corneas [6]): caused wounds to the centre of the cornea
- live-dead staining, epithelial cells (reconstructed corneas [7]): some dead and dying cells but mostly live cells
- live-dead staining, stromal cells (reconstructed corneas [7]): mostly alive
- penetration into the stromal compartment (reconstructed corneas [7]): little/no penetration of solution into the stromal compartment
